Patent publication US10238670B2, “9-aminomethyl minocycline compounds and methods of use thereof in urinary tract infection (UTI) treatment” (Paratek Pharmaceuticals, Inc., priority 2016, dated 2019)
Where two headings read alike, the source gives them in different places.

Assay: Phase 1b study in female adults with cystitis, plasma PK
Type: in vivo, human
Details: plasma, plasma; for half-life / AUC(0-t) / Cmax / concentration at 5 day / Tmax: female, human
Method: According to the study design, a randomized (1:1:1), open-label, parallel designed Phase 1b study comparing 3 dosing regimens of Compound 1 (9-[(2,2-dimethyl-propyl amino)-methyl-minocycline) in the treatment of female adults with cystitis was conducted. About 31 female patients with uncomplicated urinary tract infection (cystitis) who met inclusion and exclusion criteria were enrolled at 2-4 U.S. treatment centers. All enrolled subjects participated in the study for approximately 5-6 weeks. Following Screening of up to 48 hrs, eligible subjects were randomly assigned to receive one of 3 dosing regimens of Compound 1 treatment as shown below. Subjects in all treatment groups were domiciled for a 5-day treatment period. Details of the study are further described below.
Subjects were randomized (1:1:1) to one of the following treatment arms: • 1. Group 1: IV load, p.o. daily (200 mg Compound 1 IV every 24 hours (q24h) for 1 dose, followed by 300 mg p.o. q24h for a total of 5 days); • 2. Group 2: p.o. load, p.o. daily (300 mg Compound 1 p.o. every 12 hours (q12h) for 2 doses, followed by 300 mg p.o. q24h for a total of 5 days); • 3. Group 3: high p.o. load, high p.o. daily (450 mg Compound 1 p.o. q12h for 2 doses, followed by 450 mg p.o. q24h for a total of 5 days).
Blood samples were collected and analyzed for Compound 1 concentration at the following times. Pre-dose blood PK evaluations were based on blood samples collected within 10 min of each start (e.g., t=0 h dose for Day 1, t=24 h dose for Day 2, etc.). • Day 1: Pre-dose, and 0.75, 1, 2, 3, 4, 6, 8 and 12 hours after the t=0 h dose (12 h sample before the t=12 h dose for Groups 2 and 3); • Day 2: prior to the t=24 h dose; • Day 3: prior to the t=48 h dose; • Day 4: prior to the t=72 h dose; • Day 5: Pre-dose, and 0.5, 1, 2, 3, 4, 6, 8 and 12 hours after the t=96 h dose • Day 6: at t=120 h (24 hours after the t=96 h dose on Day 5)
Following the final oral doses on Day 5 the Compound 1 plasma concentration-time data for Groups 1, 2 and 3 were used to determine Cmax, Tmax, AUC24h, AUCt. Trough plasma concentrations (Ctrough) following each dose (Days 2 to 6) were also determined.
Blood samples for PK are collected at the time points specified below. • Day 1: Predose, and 0.75, 1, 2, 3, 4, 6, 8 and 12 hours after the t=0 h dose (12 h sample before the t=12 h dose for Groups 2 and 3); • Day 2: prior to the t=24 h dose; • Day 3: prior to the t=48 h dose; • Day 4: prior to the t=72 h dose; • Day 5: Predose, and 0.5, 1, 2, 3, 4, 6, 8 and 12 hours after the t=96 h dose • Day 6: at t=120 h (24 hours after the t=96 h dose on Day 5)
Blood was collected either by fresh venipuncture or via a cannula used solely for that purpose. The dates and times for all doses of test article and PK sample collections were recorded. For intravenously administered doses of test article, the start and stop times for each infusion were recorded. Immediately after the sample was collected, the tube was gently inverted 5 to 8 times to thoroughly mix the anticoagulant and then placed upright in a cryoblock or test tube rack surrounded by ice until centrifugation. Samples were centrifuged at 1500×g for 10 minutes at approximately 4° C. within 30 minutes of collection. The resultant plasma was divided into 2 equal aliquots, placed in individual cryovials, and immediately frozen at −20° C. or colder within 1 hour of collection. The samples were kept frozen at −20° C. or colder pending shipment to the bioanalytical laboratory.
The Compound 1 plasma concentration data was listed and summarized by time point and treatment group. The following PK parameters were estimated from the Compound 1 plasma concentration-time data: […]

With `CN(C)c1cc(CNCC(C)(C)C)c(O)c2c1C[C@H]1C[C@H]3[C@H](N(C)C)C(O)=C(C(N)=O)C(=O)[C@@]3(O)C(O)=C1C2=O` [Compound 1, 9-[(2,2-dimethyl-propylamino)-methyl]-minocycline] the half-life (oral, 300 mg, Day 5, IV_PO300, read-out: T½, Mean (converted)) was 13.8 h, the half-life (oral, 300 mg, Day 5, IV_PO300, read-out: T½, Median (converted)) was 12.1 h and the AUC(0-t) (oral, 300 mg, Day 5, PO300, read-out: AUC(0-24 hrs), Geo. Mean) was 12.4 µg·h/mL. The AUC(0-t) (oral, 300 mg, Day 5, PO300, read-out: AUC(0-24 hrs), Mean) was 13.5 µg·h/mL, the AUC(0-t) (oral, 300 mg, Day 5, PO300, read-out: AUC(0-24 hrs), Median) was 13.4 µg·h/mL and the Cmax (oral, 300 mg, Day 5, PO300, read-out: Cmax, Geo. Mean) was 0.999 µg/mL. The Cmax (oral, 300 mg, Day 5, PO300, read-out: Cmax, Mean) was 1.12 µg/mL, the Cmax (oral, 300 mg, Day 5, PO300, read-out: Cmax, Median) was 1.07 µg/mL and the concentration at 5 day (oral, 300 mg, Day 5, PO300, read-out: Ctrough, Geo. Mean) was 0.293 µg/mL. For the same molecule, the concentration at 5 day (oral, 300 mg, Day 5, PO300, read-out: Ctrough, Mean) was 0.319 µg/mL, the concentration at 5 day (oral, 300 mg, Day 5, PO300, read-out: Ctrough, Median) was 0.315 µg/mL and the Tmax (oral, 300 mg, Day 5, PO300, read-out: Tmax, Geo. Mean) was 3.61 h. For the same molecule, the Tmax (oral, 300 mg, Day 5, PO300, read-out: Tmax, Mean) was 3.9 h, the Tmax (oral, 300 mg, Day 5, PO300, read-out: Tmax, Median) was 3 h and the AUC(0-t) (oral, 450 mg, Day 1, PO450, read-out: AUC(0-12 hrs), Geo. Mean) was 6.69 µg·h/mL. The AUC(0-t) (oral, 450 mg, Day 1, PO450, read-out: AUC(0-12 hrs), Mean) was 6.85 µg·h/mL, the AUC(0-t) (oral, 450 mg, Day 1, PO450, read-out: AUC(0-12 hrs), Median) was 6.65 µg·h/mL and the Cmax (oral, 450 mg, Day 1, PO450, read-out: Cmax, Geo. Mean) was 0.948 µg/mL. For the same molecule, the Cmax (oral, 450 mg, Day 1, PO450, read-out: Cmax, Mean) was 0.987 µg/mL, the Cmax (oral, 450 mg, Day 1, PO450, read-out: Cmax, Median) was 0.947 µg/mL and the Tmax (oral, 450 mg, Day 1, PO450, read-out: Tmax, Geo. Mean) was 2.21 h. It also gave a Tmax (oral, 450 mg, Day 1, PO450, read-out: Tmax, Median) of 3 h, an AUC(0-t) (oral, 450 mg, Day 5, PO450, read-out: AUC(0-24 hrs), Geo. Mean) of 18.7 µg·h/mL and an AUC(0-t) (oral, 450 mg, Day 5, PO450, read-out: AUC(0-24 hrs), Mean) of 19.8 µg·h/mL. The AUC(0-t) (oral, 450 mg, Day 5, PO450, read-out: AUC(0-24 hrs), Median) was 21.6 µg·h/mL, the Cmax (oral, 450 mg, Day 5, PO450, read-out: Cmax, Geo. Mean) was 1.36 µg/mL and the Cmax (oral, 450 mg, Day 5, PO450, read-out: Cmax, Mean) was 1.49 µg/mL. The Cmax (oral, 450 mg, Day 5, PO450, read-out: Cmax, Median) was 1.65 µg/mL, the concentration at 5 day (oral, 450 mg, Day 5, PO450, read-out: Ctrough, Geo. Mean) was 0.462 µg/mL and the concentration at 5 day (oral, 450 mg, Day 5, PO450, read-out: Ctrough, Mean) was 0.484 µg/mL. It also gave a concentration at 5 day (oral, 450 mg, Day 5, PO450, read-out: Ctrough, Median) of 0.503 µg/mL, a Tmax (oral, 450 mg, Day 5, PO450, read-out: Tmax, Geo. Mean) of 2.64 h and a Tmax (oral, 450 mg, Day 5, PO450, read-out: Tmax, Mean) of 3.36 h. The Tmax (oral, 450 mg, Day 5, PO450, read-out: Tmax, Median) was 3.02 h, the Tmax (po, 300 mg, Day 1, 300 mg po (n = 10), median, read-out: tmax) was 3 h and the Cmax (po, 300 mg, Day 5, 300 mg po (n = 10), mean, read-out: Cmax) was 1.12 µg/mL. It also gave a Tmax (po, 300 mg, Day 5, 300 mg po (n = 10), median, read-out: tmax) of 3 h, an AUC(0-t) (po, 450 mg, Day 1, 450 mg po (n = 10), mean, read-out: AUC0-12) of 6.85 µg·h/mL and a Tmax (po, 450 mg, Day 1, 450 mg po (n = 10), median, read-out: tmax) of 3 h. For the same molecule, the Cmax (po, 450 mg, Day 1, 450 mg po (n = 10), mean, read-out: Cmax) was 0.99 µg/mL, the AUC(0-t) (po, 450 mg, Day 5, 450 mg po (n = 10), mean, read-out: AUC0-24) was 19.8 µg·h/mL and the Cmax (po, 450 mg, Day 5, 450 mg po (n = 10), mean, read-out: Cmax) was 1.49 µg/mL. The Tmax (po, 450 mg, Day 5, 450 mg po (n = 10), median, read-out: tmax) was 3 h, the “Lambda Z, Geo. Mean” value (Day 1, IV_PO300) was 0.0614 h⁻¹ and the “Lambda Z, Mean” value (Day 1, IV_PO300) was 0.0620 h⁻¹. The “Lambda Z, Median” value (Day 1, IV_PO300) was 0.0605 h⁻¹, the “Tmax, Mean” value (Day 1, PO450) was 2.492 h and the “Lambda Z, Geo. Mean” value (Day 5, IV_PO300) was 0.0526 h⁻¹. The “Lambda Z, Mean” value (Day 5, IV_PO300) was 0.0545 h⁻¹ and the “Lambda Z, Median” value (Day 5, IV_PO300) was 0.0574 h⁻¹.
